The record followed here is ChEMBL document CHEMBL4627412.

Molecules are shown by their SMILES.

In assay [1] the target is Protease (Human immunodeficiency virus 1, UniProt Q9YQ12, A71V/I50V). The assay is described as follows: Inhibition of HIV1 NL4-3 protease I50V/A71V mutant expressed in Escherichia coli TAP-106 cells using EDANS/DABCYL-labelled 10-amino acid containing protease cleavage site as substrate preincubated for 1 hr followed by substrate addition and measured for 60 mins by FRET assay.

The target in assay [2] is Protease (Human immunodeficiency virus 1, UniProt Q9YQ12, I84V). The assay can be described thus: Inhibition of HIV1 NL4-3 protease I84V mutant expressed in Escherichia coli TAP-106 cells using EDANS/DABCYL-labelled 10-amino acid containing protease cleavage site as substrate preincubated for 1 hr followed by substrate addition and measured for 60 mins by FRET assay.
The target of assay [3] is Human immunodeficiency virus type 1 protease (Human immunodeficiency virus 1, UniProt Q72874). The assay can be described thus: Inhibition of HIV1 NL4-3 protease expressed in Escherichia coli TAP-106 cells using EDANS/DABCYL-labelled 10-amino acid containing protease cleavage site as substrate preincubated for 1 hr followed by substrate addition and measured for 60 mins by FRET assay.

Assay [4] concerns Human immunodeficiency virus 1. The assay can be described thus: Antiviral activity against wild-type HIV1 NL4-3 infected in human TZM-bl cells infected with supernatants from virus-infected human 293T cells treated with compound for 18 hrs assessed as reduction in viral replication by luciferase assay. The class given is functional, organism-based. The settings on record: Human immunodeficiency virus 1, NL4-3, 18 h.

Protease (Human immunodeficiency virus 1, UniProt Q9YQ12, I84V), sequence (Q9YQ12 entry or part of it I84V): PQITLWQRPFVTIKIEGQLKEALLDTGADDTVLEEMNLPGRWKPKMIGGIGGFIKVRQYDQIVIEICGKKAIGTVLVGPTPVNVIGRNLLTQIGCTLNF
Protease (Human immunodeficiency virus 1, UniProt Q9YQ12, A71V/I50V), sequence (Q9YQ12 entry or part of it A71V/I50V): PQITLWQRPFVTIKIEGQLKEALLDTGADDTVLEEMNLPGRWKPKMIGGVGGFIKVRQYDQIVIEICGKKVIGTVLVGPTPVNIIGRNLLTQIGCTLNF

As to `COC(=O)N[C@H](C(=O)N[C@@H](Cc1ccccc1)[C@@H](O)C[C@H](Cc1ccccc1)NC(=O)O[C@H]1CO[C@H]2OCC[C@H]21)C(C)(C)C`, the Ki (as a rule, the equilibrium dissociation constant of an inhibitor or competing ligand from its target) was determined as 0.273 nM on Protease [1], 0.208 nM at Protease [2] and 0.018 nM in assay [3]. Moreover, in assay [4], the EC50 (usually the concentration giving half of the maximal effect) was 11 nM.

With `COC(=O)N[C@H](C(=O)N[C@@H](Cc1ccccc1)[C@@H](O)C[C@H](Cc1ccccc1)NC(=O)O[C@H]1CO[C@H]2OCC[C@H]21)C(C)C`, the Ki amounted to 0.295 nM at Protease [1], 0.302 nM on Protease [2] and 0.074 nM in assay [3]. In assay [4], the EC50 was 55 nM.

As to `COC(=O)N[C@H](C(=O)N[C@@H](Cc1ccccc1)C[C@H](O)[C@H](Cc1ccccc1)NC(=O)O[C@H]1CO[C@H]2OCC[C@H]21)C(C)(C)C`, the Ki at Protease [1] was found to be 0.072 nM; on Protease [2] it was 0.372 nM; in assay [3], 0.013 nM. In assay [4], the EC50 came to 39 nM.

With `CC[C@@H](C)[C@H](NC(=O)OC)C(=O)N[C@@H](Cc1ccccc1)[C@@H](O)C[C@H](Cc1ccccc1)NC(=O)O[C@H]1CO[C@H]2OCC[C@H]21`, the results for the Ki (at Protease [1]; at Protease [2]; in assay [3]) were 0.029 nM, 0.091 nM and 0.027 nM, respectively. The EC50 in assay [4] was 240 nM.

`Cc1cccc(C)c1OCC(=O)N[C@@H](Cc1ccccc1)[C@@H](O)C[C@H](Cc1ccccc1)NC(=O)O[C@H]1CO[C@H]2OCC[C@H]21`: the values for the Ki (on Protease [1]; on Protease [2]; in assay [3]) were 0.072 nM, 0.069 nM and 0.017 nM, respectively. For the same compound, the EC50 in assay [4] stood at 38 nM.

Take `COC(=O)N[C@H](C(=O)N[C@@H](Cc1ccccc1)C[C@H](O)[C@H](Cc1ccccc1)NC(=O)O[C@H]1CO[C@H]2OCC[C@H]21)C1CCCC1`: the Ki is 1.39 nM on Protease [1], 1.18 nM at Protease [2] and 0.161 nM in assay [3].

For the compound `COC(=O)N[C@@H](C)C(=O)N[C@@H](Cc1ccccc1)[C@@H](O)C[C@H](Cc1ccccc1)NC(=O)O[C@H]1CO[C@H]2OCC[C@H]21`, the values for the Ki (on Protease [1]; on Protease [2]; in assay [3]) were 0.073 nM, 0.069 nM and 0.019 nM, respectively. Also, in assay [4], the EC50 was 66 nM.

Turning to `COC(=O)NC1(C(=O)N[C@@H](Cc2ccccc2)[C@@H](O)C[C@H](Cc2ccccc2)NC(=O)O[C@H]2CO[C@H]3OCC[C@H]32)CCCC1`, the Ki came to 484 nM on Protease [1], 236 nM at Protease [2] and 46 nM in assay [3].

As for `COC(=O)N[C@H](C(=O)N[C@@H](Cc1ccccc1)[C@@H](O)C[C@H](Cc1ccccc1)NC(=O)O[C@H]1CO[C@H]2OCC[C@H]21)C1CC1`, the Ki on Protease [1] was found to be 1.66 nM; on Protease [2] it was 1.82 nM; in assay [3] it was 0.571 nM.

`Cc1cccc(C)c1OCC(=O)N[C@@H](Cc1ccccc1)C[C@H](O)[C@H](Cc1ccccc1)NC(=O)O[C@H]1CO[C@H]2OCC[C@H]21`: the Ki amounted to 0.259 nM at Protease [2] and 0.037 nM in assay [3]. Further, the EC50 in assay [4] came out at 16 nM.

With `COC(=O)NC1(C(=O)N[C@@H](Cc2ccccc2)C[C@H](O)[C@H](Cc2ccccc2)NC(=O)O[C@H]2CO[C@H]3OCC[C@H]32)CCCC1`, the Ki was found to be 40 nM on Protease [1], 191 nM on Protease [2] and 7.3 nM in assay [3].

On to `CC[C@H](C)[C@H](NC(=O)OC)C(=O)N[C@@H](Cc1ccccc1)[C@@H](O)C[C@H](Cc1ccccc1)NC(=O)O[C@H]1CO[C@H]2OCC[C@H]21`, for which the Ki was 0.56 nM on Protease [1], 0.198 nM at Protease [2] and 0.055 nM in assay [3]. Also, the EC50 in assay [4] was found to be 70 nM.

As for `COC(=O)N[C@H](C(=O)N[C@@H](Cc1ccccc1)[C@@H](O)C[C@H](Cc1ccccc1)NC(=O)O[C@H]1CO[C@H]2OCC[C@H]21)C1CCCC1`, the Ki at Protease [1] stood at 2.35 nM; at Protease [2], 0.71 nM; in assay [3] it was 0.235 nM.

As to `Cc1cccc(C)c1OCC(=O)N[C@@H](Cc1ccccc1)[C@@H](O)C[C@H](Cc1ccccc1)NC(=O)[C@H](C(C)C)N1CCCNC1=O` [LOPINAVIR], in assay [4], the EC50 stood at 12 nM.
